In patent US9982005B2, “Macrolides and methods of their preparation and use” (President and Fellows of Harvard College, priority 2013, dated 2018):
≈ marks a conversion by molar mass, not a printed value. Where two headings read alike, the source gives them in different places.

Legend:
Assay type in all cases: cell-based
E. coli strains = assay: MIC against E. coli strains (Table M7); conditions: Escherichia coli, ATCC25922, E. coli ATCC 25922
Description: (§1) We have collected MIC data for a total of 50 novel macrolides that this platform has produced against over 21 unique strains of B. subtilis, E. coli, S. aureus, S. pneumoniae, and H. influenzae, including several multidrug-resistant strains, with a special focus on macrolide resistant mechanisms (vide supra). Azithromycin was included as a control macrolide. CLSI standard procedures for broth dilution MIC determination were used. […] These genotypes can be constitutive or inducible. The finding that C4-epi (unnatural) isomers of the “azaketolide” macrolide class have enhanced activities relative to C4 natural isomers is very exciting.

S. aureus strains = assay: MIC against S. aureus strains (Table M7); conditions: Staphylococcus aureus
Description: as §1

S. pneumoniae strains = assay: MIC against S. pneumoniae strains (Tables M7, M8); conditions: for MIC: Streptococcus pneumoniae
Description: CLSI standard procedures for broth dilution MIC determination were used. […] These genotypes can be constitutive or inducible.

E. faecalis strains = assay: MIC against E. faecalis strains (Table M8); conditions: for MIC: Enterococcus faecalis, E. faecalis 29212
A. baumannii strains = assay: MIC against A. baumannii strains (Table M8); conditions: Acinetobacter baumannii, BAA747, A. baumannii BAA747-1
K. pneumoniae strains = assay: MIC against K. pneumoniae strains (Table M8); conditions: for MIC: Klebsiella pneumoniae, K. pneumoniae 10031
H. influenzae strains = assay: MIC against H. influenzae strains (Table M8); conditions: for MIC: Haemophilus influenzae
Description: as §1

[1] = ATCC29213, S. aureus ATCC 29213, read-out: MIC S. aureus (ATCC 29213)
[2] = S. aureus 183, read-out: MIC S. aureus (183)
[3] = S. aureus 506, read-out: MIC S. aureus (506)
[4] = S. aureus 1708, read-out: MIC S. aureus (1708)
[5] = USA300, S. aureus USA300, read-out: MIC S. aureus (USA300)
[6] = S. pneumoniae 160, read-out: MIC S. pneumonae (160)
[7] = S. pneumoniae 1509, read-out: MIC S. pneumoniae (1509)
[8] = S. pneumoniae 1533, read-out: MIC S. pneumoniae (1533)
[9] = S. pneumoniae 1537, read-out: MIC S. pneumoniae (1537)
[10] = S. pneumoniae 49619, read-out: MIC S. pneumoniae (49619)
[11] = H. influenzae 49247, read-out: MIC H. influenzae (49247)
[12] = H. influenzae 49766, read-out: MIC H. influenzae (49766)

MIC (E. coli strains) [µg/mL] | MIC (S. aureus strains; [1]) [µg/mL] | MIC (S. aureus strains; [2]) [µg/mL] | MIC (S. aureus strains; [3]) [µg/mL] | MIC (S. aureus strains; [4]) [µg/mL] | MIC (S. aureus strains; [5]) [µg/mL] | MIC (S. pneumoniae strains; [6]) [µg/mL] | MIC (S. pneumoniae strains; [7]) [µg/mL] | MIC (S. pneumoniae strains; [8]) [µg/mL] | MIC (S. pneumoniae strains; [9]) [µg/mL] | MIC (S. pneumoniae strains; [10]) [µg/mL] | MIC (E. faecalis strains) [µg/mL] | MIC (A. baumannii strains) [µg/mL] | MIC (K. pneumoniae strains) [µg/mL] | MIC (H. influenzae strains; [11]) [µg/mL] | MIC (H. influenzae strains; [12]) [µg/mL] | MIC S. pneumoniae (49619) (S. pneumoniae strains; S. pneumoniae 49619) [µg/mL] | Structure (SMILES) | also measured
4 (≈ 4.68 µM) | 8 (≈ 9.37 µM) | > 32 | > 32 | 16 (≈ 18.7 µM) | 8 (≈ 9.37 µM) | 0.125 (≈ 0.146 µM) | 8 (≈ 9.37 µM) | > 32 | > 32 |  | 2 (≈ 2.34 µM) | 16 (≈ 18.7 µM) | 4 (≈ 4.68 µM) | 1 (≈ 1.17 µM) | 4 (≈ 4.68 µM) | 0.25 (≈ 0.293 µM) | C=CC[C@@]1(OC)C[C@@H](C)CN[C@H](C)[C@H]2N(CCCCn3cc(-c4cccc(N)c4)nn3)C(=O)O[C@]2(C)[C@@H](CC)OC(=O)[C@H](C)C(=O)[C@@H](C)[C@H]1O[C@@H]1OC(C)CC(N(C)C)C1O (stereo partly drawn) [FSM-21367] | 
32 (≈ 37.3 µM) | > 32 | > 32 | > 32 | > 32 | > 32 | 4 (≈ 4.66 µM) | > 32 | > 32 | > 32 | 1 (≈ 1.17 µM) | 16 (≈ 18.6 µM) | > 32 | 8 (≈ 9.32 µM) | 8 (≈ 9.32 µM) | 16 (≈ 18.6 µM) |  | CC[C@H]1OC(=O)[C@H](C)C(=O)[C@H](C)[C@@H](O[C@@H]2OC(C)CC(N(C)C)C2O)[C@](CCO)(OC)C[C@@H](C)CN[C@H](C)[C@H]2N(CCCCn3cc(-c4cccc(N)c4)nn3)C(=O)O[C@]12C (stereo partly drawn) [FSM-21422] | 
32 (≈ 38.1 µM) | 16 (≈ 19 µM) | > 32 | > 32 | 32 (≈ 38.1 µM) | 16 (≈ 19 µM) |  | > 32 | > 32 | > 32 |  |  | > 32 |  |  | 16 (≈ 19 µM) | 1 (≈ 1.19 µM) | C=CC[C@@]1(OC)C[C@@H](C)CN[C@H](C)[C@H]2N(CCCCn3cc(-c4ccccn4)nn3)C(=O)O[C@]2(C)[C@@H](CC)OC(=O)[C@H](C)C(=O)[C@H](C)[C@H]1O[C@@H]1OC(C)CC(N(C)C)C1O (stereo partly drawn) [FSM-21423] | MIC S. pneumonae (160) (S. pneumoniae strains; S. pneumoniae 160): 0.25 µg/mL (≈ 0.298 µM); MIC E. faecalis (29212) (E. faecalis strains): 4 µg/mL (≈ 4.76 µM); MIC K. pneumoniae (10031) (K. pneumoniae strains): 8 µg/mL (≈ 9.52 µM); MIC H. influenzae (49247) (H. influenzae strains; H. influenzae 49247): 2 µg/mL (≈ 2.38 µM)

The remaining lines, values behind:

Structure (SMILES) | MIC (E. coli strains) [µg/mL] | MIC (S. aureus strains; [1]) [µg/mL] | MIC (S. aureus strains; [2]) [µg/mL] | MIC (S. aureus strains; [3]) [µg/mL] | MIC (S. aureus strains; [4]) [µg/mL] | MIC (S. aureus strains; [5]) [µg/mL] | MIC (S. pneumoniae strains; [6]) [µg/mL] | MIC (S. pneumoniae strains; [7]) [µg/mL] | MIC (S. pneumoniae strains; [8]) [µg/mL] | MIC (S. pneumoniae strains; [9]) [µg/mL] | MIC (S. pneumoniae strains; [10]) [µg/mL] | MIC (E. faecalis strains) [µg/mL] | MIC (A. baumannii strains) [µg/mL] | MIC (K. pneumoniae strains) [µg/mL] | MIC (H. influenzae strains; [11]) [µg/mL] | MIC (H. influenzae strains; [12]) [µg/mL] | MIC S. pneumoniae (49619) (S. pneumoniae strains; S. pneumoniae 49619) [µg/mL] | also measured
CC[C@H]1OC(=O)[C@H](C)C(O)[C@H](C)[C@@H](O[C@@H]2OC(C)CC(N(C)C)C2O)[C@](C)(OC)C[C@@H](C)CN[C@H](C)[C@H]2N(CCCCn3cc(-c4cccc(N)c4)nn3)C(=O)O[C@]12C (stereo partly drawn) [FSM-21340] | 4 (≈ 4.82 µM) | 16 (≈ 19.3 µM) | > 32 | > 32 | > 32 | 16 (≈ 19.3 µM) | 0.5 (≈ 0.602 µM) | > 32 | > 32 | > 32 | 0.5 (≈ 0.602 µM) | 8 (≈ 9.64 µM) | 8 (≈ 9.64 µM) | 2 (≈ 2.41 µM) | 1 (≈ 1.2 µM) | 4 (≈ 4.82 µM) |  | 
CC[C@H]1OC(=O)C(C)C(=O)[C@H](C)[C@@H](O[C@@H]2OC(C)CC(N(C)C)C2O)[C@](C)(OC)C[C@@H](C)C(=O)N[C@H](C)[C@H]2N(CCCCn3cc(-c4cccc(N)c4)nn3)C(=O)O[C@]12C (stereo partly drawn) [FSM-21344] | > 32 | > 32 | > 32 | > 32 | > 32 | > 32 | 8 (≈ 9.5 µM) | 4 (≈ 4.75 µM) | > 32 | > 32 | 0.5 (≈ 0.594 µM) | 16 (≈ 19 µM) | > 32 | 16 (≈ 19 µM) | 8 (≈ 9.5 µM) | 32 (≈ 38 µM) |  | 
CC[C@H]1OC(=O)[C@H](C)C(=O)[C@H](C)[C@@H](O[C@@H]2OC(C)CC(N(C)C)C2O)[C@](C)(OC)C[C@@H](C)CCN[C@H](C)[C@H]2N(CCCCn3cc(-c4cccc(N)c4)nn3)C(=O)O[C@]12C (stereo partly drawn) [FSM-21397] | 16 (≈ 19 µM) | 2 (≈ 2.38 µM) | > 32 | > 32 | 2 (≈ 2.38 µM) | 2 (≈ 2.38 µM) | 0.25 (≈ 0.297 µM) | 4 (≈ 4.75 µM) | > 32 | > 32 | 0.125 (≈ 0.148 µM) | 0.5 (≈ 0.594 µM) | 16 (≈ 19 µM) | 4 (≈ 4.75 µM) | 2 (≈ 2.38 µM) | 4 (≈ 4.75 µM) |  | 
